Measurements taken from US20230250095A1, “BENZIMIDAZOLE DERIVATIVES, PREPARATION METHOD THEREFOR AND MEDICAL USE THEREOF” (TUOJIE BIOTECH(SHANGHAI) CO., LTD., priority 2020, published 2023).

Key:
hP2X2/3 = target: T1, hP2X2/3 (Homo sapiens, UniProt P56373+Q9UBL9); test: FLIPR calcium flux assay, antagonistic activity against hP2X2/3 receptor; assay type: cell-based; conditions: 1321N1/hP2X2/3 cells, agonist α,β-meATP 1000 nM
T1 construct: host or cells: 1321N1 cells
T1 sequence (Q9UBL9 1-471): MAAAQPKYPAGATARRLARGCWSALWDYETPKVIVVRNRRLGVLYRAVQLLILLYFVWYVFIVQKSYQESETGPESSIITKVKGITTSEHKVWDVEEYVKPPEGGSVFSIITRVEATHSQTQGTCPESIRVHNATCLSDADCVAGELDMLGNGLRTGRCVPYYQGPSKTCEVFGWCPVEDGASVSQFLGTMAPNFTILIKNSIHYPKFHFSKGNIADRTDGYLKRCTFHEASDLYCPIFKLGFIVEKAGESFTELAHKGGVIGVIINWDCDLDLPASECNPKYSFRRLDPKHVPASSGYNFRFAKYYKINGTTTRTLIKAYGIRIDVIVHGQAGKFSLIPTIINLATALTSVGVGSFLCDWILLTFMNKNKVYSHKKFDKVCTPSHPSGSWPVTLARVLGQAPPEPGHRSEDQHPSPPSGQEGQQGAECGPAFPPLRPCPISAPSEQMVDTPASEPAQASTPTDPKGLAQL
T1 sequence (P56373 1-397): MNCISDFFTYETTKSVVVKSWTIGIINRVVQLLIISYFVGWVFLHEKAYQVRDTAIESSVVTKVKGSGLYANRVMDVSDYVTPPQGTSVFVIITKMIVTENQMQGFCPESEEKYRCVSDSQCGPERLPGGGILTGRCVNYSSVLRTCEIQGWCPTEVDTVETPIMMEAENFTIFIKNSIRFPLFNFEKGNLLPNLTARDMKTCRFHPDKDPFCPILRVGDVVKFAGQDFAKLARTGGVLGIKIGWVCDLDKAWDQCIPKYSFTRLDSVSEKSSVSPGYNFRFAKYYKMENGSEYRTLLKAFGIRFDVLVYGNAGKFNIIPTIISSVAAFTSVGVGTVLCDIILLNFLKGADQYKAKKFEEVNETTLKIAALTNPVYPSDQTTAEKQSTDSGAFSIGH
Experimental: The compounds were screened for antagonistic activity against hP2X3 and hP2X2/3 receptors (changes in calcium flux signals represent the effect of the compounds on ion channels) by an FLIPR assay.
1321N1 cells (adherent cells) stably transfected with hP2X3 and hP2X2/3 receptors were digested, centrifuged, resuspended in a plating medium (DMEM+10% DFBS) and counted, adjusted to 2×10^5 cells/mL. The cells were seeded in a 384-well assay plate at 50 μL/well, and incubated in an incubator at 37° C. with 5% CO2 for 16-24 h. Test compounds (20 mM DMSO stock solution) that were 180 times the desired concentration were prepared with DMSO, and added to a 384-well compound plate at 500 nL/well. Then, each well was supplemented with 30 μL of FLIPR buffer (lx HBSS containing 1.26 mM Ca^2++2 mM CaCl2)+20 mM HEPES), and the mixture was shaken for 20-40 min to be mixed well. The agonist α,β-meATP (final concentration of 500 nM for hP2X3 cells and final concentration of 1000 nM for hP2X2/3 cells) that was 3 times the desired concentration was prepared with an FLIPR buffer, and added to another 384-well compound plate at 35 μL/well. The cell plate in which cells had been plated and cultured for 16-24 h was taken out, and the cell supernatant was removed by pipetting. 30 μL of dye (FLIPR® calcium 4 assay kit, diluted with an FLIPR buffer) was added to each well, and the plate was incubated for 1 h. 15 μL of the compound was added to each well containing cells (dosing using an FLIPR instrument), and after 15 min, 22.5 μL of agonist was added to each well and the fluorescent signal was detected (excitation wavelength: 470-495 nm, emission wavelength: 515-575 nm). With the difference between the peak and the trough of the signal taken as the basic data, the data of the highest concentration of the positive drug taken as the 100% inhibition rate, and the data of DMSO taken as the 0% inhibition rate, the inhibition effect curves of the compounds were fitted on the software Graphpad Prism 6 and IC50 values were calculated.

CYP2C9 = target: T2, CYP2C9 (Homo sapiens, UniProt P11712); test: CYP inhibition assay in pooled human liver microsomes (diclofenac sodium); assay type: in vitro ADME; conditions: human liver microsomes 0.2 mg/mL, substrate diclofenac sodium; read-out: CYP 2C9 (μM) IC50
T2 construct: 150-donor pooled human liver microsomes (purchased from Corning, Cat. No. 452117); tissue Corning 452117; host or cells: 150-donor pooled human liver microsomes
Experimental: The metabolic reactions of representative substrates of 5 major human CYP subtypes (CYP1A2, CYP2C9, CYP2C19, CYP2D6, CYP3A4/5) were evaluated using 150-donor pooled human liver microsomes (purchased from Corning, Cat. No. 452117). The effects of different concentrations of the test compounds on the metabolic reactions of phenacetin (CYP1A2), diclofenac sodium (CYP2C9), S-mephenytoin (CYP2C19), bufuralol hydrochloride (CYP2D6) and midazolam (CYP3A4/5) were determined by liquid chromatography-tandem mass spectrometry (LC/MS/MS).
30 μM phenacetin, 10 μM diclofenac sodium, 35 μM S-mephenytoin, 5 μM bufuralol hydrochloride, 3 μM midazolam, 1 mM NADPH, and test compounds (at concentrations of 0.1 μmol/L, 0.3 μmol/L, 1 μmol/L, 3 μmol/L, 10 μmol/L, and 30 μmol/L, respectively) or positive compound or blank were incubated with 200 μL of a reaction system of pooled human liver microsomes (0.2 mg/mL) (100 mmol/L phosphate buffer, pH 7.4, containing 0.3% by volume of DMSO, 0.6% by volume of acetonitrile, and 0.1% by volume of methanol) at 37° C. for 5 min. Then, 200 μL of acetonitrile containing 3% formic acid and 40 nM internal standard verapamil was added, and the mixture was centrifuged at 4000 rpm for 50 min. The mixture was cooled on ice for 20 min and centrifuged at 4000 rpm for 20 min to precipitate the protein. 200 μL of the supernatant was analyzed by LC/MS/MS.
The peak area was calculated from the chromatogram. The residual activity rate (%) was calculated by the following formula:
peak area rate=peak area of metabolite/peak area of internal standard
residual activity rate (%)=peak area proportion of the test compound group/peak area proportion of the blank group
The half maximal inhibitory concentrations (IC50) against CYP were calculated by Excel XLfit 5.3.1.3.

T2 sequence (P11712 whole entry): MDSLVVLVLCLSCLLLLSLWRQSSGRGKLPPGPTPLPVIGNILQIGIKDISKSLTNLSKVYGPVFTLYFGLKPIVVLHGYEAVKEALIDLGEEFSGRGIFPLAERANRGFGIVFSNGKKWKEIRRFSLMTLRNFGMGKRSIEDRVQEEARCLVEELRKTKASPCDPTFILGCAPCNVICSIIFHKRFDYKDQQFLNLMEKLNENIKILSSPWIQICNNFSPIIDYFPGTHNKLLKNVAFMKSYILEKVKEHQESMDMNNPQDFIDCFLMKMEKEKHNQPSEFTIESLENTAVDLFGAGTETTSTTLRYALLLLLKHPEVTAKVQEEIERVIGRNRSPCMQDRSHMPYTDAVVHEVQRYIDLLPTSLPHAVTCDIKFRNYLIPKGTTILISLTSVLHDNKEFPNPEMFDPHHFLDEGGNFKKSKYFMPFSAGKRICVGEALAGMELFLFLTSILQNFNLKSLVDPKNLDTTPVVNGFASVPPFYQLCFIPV

Row | IC50 (hP2X2/3) | IC50 (CYP2C9) | SMILES
1 | 5.57 µM | 21.7 µM | CC(=O)N1CCOC(Cn2c(-c3c(F)cc(N4CCCC4=O)cc3F)nc3cc(C)ccc32)C1 (stereo in doubt) [Compound 1]
2 | 19 µM | 3.06 µM | COC(=O)N1CCOC(Cn2c(-c3c(F)cc(N4CCCC4=O)cc3F)nc3cc(C)ccc32)C1 (stereo not shown) [Compound 2, Methyl 2-((2-(2,6-difluoro-4-(2-carbonylpyrrolidin-1-yl)phenyl)-5-methyl-1H-benzo[d]imidazol-1-yl)methyl)morpholine-4-carboxylate]
3 | 1.81 µM | > 30 µM | CC(=O)N1CCO[C@@H](Cn2c(-c3ccc(N4CCCC4=O)cc3Cl)nc3cc(C)ccc32)C1 [Compound 3, (S)-1-(4-(1-((4-acetylmorpholin-2-yl)methyl)-5-methyl-1H-benzo[d]imidazol-2-yl)-3-chlorophenyl)pyrrolidin-2-one]
4 | 1.93 µM | > 30 µM | CC(=O)N1CCO[C@@H](Cn2c(-c3c(F)cc(N4CCCC4=O)cc3Cl)nc3cc(C)ccc32)C1 [Compound 4, (S)-1-(4-(1-((4-acetylmorpholin-2-yl)methyl)-5-methyl-1H-benzo[d]imidazol-2-yl)-3-chloro-5-fluorophenyl)pyrrolidin-2-one]
5 | 7.41 µM | > 30 µM | CC(=O)N1CCO[C@@H](Cn2c(-c3c(F)cc(N4CCCC4=O)cc3F)nc3cc(Cl)ccc32)C1 [Compound 10, (S)-1-(4-(1-((4-acetylmorpholin-2-yl)methyl)-5-chloro-1H-benzo[d]imidazol-2-yl)-3,5-difluorophenyl)pyrrolidin-2-one]
6 | – | 21.9 µM | [2H]C([2H])([2H])c1ccc2c(c1)nc(-c1c(F)cc(N3CCCC3=O)cc1F)n2C[C@H]1CN(C(C)=O)CCO1 [Compound 14, (S)-1-(4-(1-((4-acetylmorpholin-2-yl)methyl)-5-(methyl-d3)-1H-benzo[d]imidazol-2-yl)-3,5-difluorophenyl)pyrrolidin-2-one]

Row | SMILES | IC50 (hP2X2/3) | IC50 (CYP2C9)
7 | COC(=O)N1CCO[C@@H](Cc2c(-c3c(F)cc(N4CCCC4=O)cc3F)nc3cc(C)ccn23)C1 [Compound 9, Methyl (S)-2-((2-(2,6-difluoro-4-(2-carbonylpyrrolidin-1-yl)phenyl)-7-methylimidazo[1,2-a]pyridin-3-yl)methyl)morpholine-4-carboxylate] | 30.3 µM | 1.48 µM
